Counter-ions that a name gives are not always drawn.
Assays:
[1] = tested on: VAN antibodies (monoclonal antibodies derived from mouse ascites); experiment: Colloidal gold competitive immunoassay test strip (calibration curve and cross-reactivity); assay type: binding; conditions: for CR (%) = [IC50 of VAN/IC50 of the tested compound] × 100%: cross-reactivity of the colloidal gold test strip; for IC50 (ng/mL), cross-reactivity test: compounds at 0, 0.1, 1, 10, 100, 1000 and 10,000 ng/mL
Description: Colloidal gold nanoparticles, integral for inducing a visible color change at the test line of the assay strips, were synthesized by boiling 100 mL of a 0.01% HAuCl4 aqueous solution, followed by the addition of 1% sodium citrate aqueous solution [46, 47, 48]. […] Subsequently, VAN antibodies were conjugated to these gold nanoparticles. The VAN antibodies used were monoclonal antibodies derived from mouse ascites with a molecular weight of 150 kD. They were purchased from Shenzhen KeJie Industrial Development Co., Ltd. (Shenzhen, China). The efficacy of this conjugation relied on a trifecta of forces: ionic attractions between the negatively charged gold particles and the positively charged proteins, hydrophobic interactions, and sulfur bonds, particularly from thiol groups that linked two regions of the Fc segment of the antibody to the gold surface.
A sequence of critical steps must be followed for fabricating colloidal gold immunochromatographic test strips. Initially, a substrate, typically comprising paper or a film, was precoated with antibodies specifically tailored for detecting the target molecule. Subsequently, colloidal gold nanoparticles were synthesized by reducing gold salts and coupled with antibodies. This coupling was facilitated by the combination of ionic, hydrophobic, and sulfur bond interactions. The resultant antibody-labeled colloidal gold solution was then applied to the designated test line area on the substrate. Then, a control line was established to validate the operational integrity of the strip. Following these applications, the strip underwent a drying process, was trimmed to manageable dimensions, and was hermetically sealed in protective packaging to mitigate the risk of environmental contamination.
The intensity of the color on the test line indicated the signal value. We quantified this signal using a smartphone camera in combination with the ImageJ software (Fiji ImageJ for Mac, 2.3.0 version). […] We used ImageJ to extract the gray values from lines drawn perpendicular to both the control and test lines. […] Therefore, the effective signal, represented as B, is determined by the absolute difference in gray value between the test line and its adjacent area.
The test line is coated with a competitive VAN–BSA antigen, and the control line is coated with […]. Upon application of the sample to the sample pad, the sample flows through the colloidal gold pad to interact with the gold-labeled antibodies. It then progresses through the test and control lines before being absorbed into the absorbent paper. The appearance of a visible line in the test area signifies a negative result for VAN (Figure 1(b1)). […] Regardless of the presence or absence of VAN, a red control line should always appear when the test is operating correctly. Otherwise, the results are invalid. Figure 1c depicts the four scenarios that may arise during testing.
Under optimized assay conditions, we used in-house-prepared VAN standard samples to validate the performance metrics of the test strips. The concentrations of the standard samples were 0, 1, 2, 4, 8, 16, 32, 64, 128, 256, 512, and 1024 ng/mL. For the analysis, we applied 4–5 drops of each sample onto the test strips and allowed them to air-dry for 10 min. We observed an inverse correlation between the VAN concentration and the test line signal intensity. We then proceeded to construct a calibration curve to elucidate the correlation between the optical signals (designated as B/B0) and the respective VAN concentrations. In this context, B represents the optical signals for each standard concentration of VAN, while B0 signifies the optical signal at a zero-concentration baseline. […]

[2] = Pharmacokinetic study of VAN in CSF of beagle dogs (LC-MS); assay type: in vivo; conditions: single intravenous dose 12 mg/kg, average of three dogs
Description: (§1) Animal Dosing and Sample Collection: The choice of using beagle dogs for the pharmacokinetic studies of VAN in CSF and plasma is driven by their physiological similarities to humans, which make them a suitable model for predicting human pharmacokinetics. Three male beagle dogs, each weighing approximately 11 kg and aged 10 months, were utilized for pharmacokinetic studies. Both the acquisition of the beagle dogs and the sample collection were conducted by Beijing Sinogenetic Biotechnology Co., Ltd. (Beijing, China). The animal protocols employed for this research were reviewed and approved by Beijing Sinogenetic Biotechnology Co., Ltd. (XNY-20230524001). The beagle dogs were anesthetized and subsequently administered a single intravenous dose of a pre-prepared 50 mg/mL VAN hydrochloride solution at a dosage level of 12 mg/kg, with the injection time lasting approximately 2–3 s. CSF and plasma samples were collected at predetermined time points: predose (0 min) and postdose at intervals of 5 min, 10 min, 30 min, 1 h, 2 h, 4 h, 8 h, and 24 h. […]
(§2) An HPLC–MS method was established to precisely quantify VAN levels in CSF and plasma samples collected from beagle dogs. […] The methodological rigor ensured a high degree of specificity and sensitivity in VAN quantification, effectively fulfilling the objectives of this study.

[3] = Pharmacokinetic study of VAN in plasma of beagle dogs (LC-MS); assay type: in vivo; conditions: single intravenous dose 12 mg/kg, average of three dogs
Description: as §1, §2

Compound	CR (%) = [IC50 of VAN/IC50 of the tested compound] × 100% [1] [%]	IC50 (ng/mL), cross-reactivity test ([1]; test strip)	time at which VAN concentration in CSF reaches its maximum [2]	peak concentration of VAN in plasma [3] [µg/mL]	concentration of VAN in plasma within ~4 h ([3]; ~4 h post dose)	LOD, concentration of VAN giving a 10% inhibition of the maximum absorbance ([1]; test strip calibration curve, read after 10 min, n = 3) [ng/mL]	inhibitory concentration 50% (IC50) from the calibration curve (B/B0 against VAN concentration) ([1]; test strip, standard samples 0-1024 ng/mL, read after 10 min, smartphone/ImageJ gray value, n = 3) [µg/mL]
NCC[C@H](O)C(=O)N[C@@H]1C[C@H](N)[C@@H](O[C@H]2O[C@H](CN)[C@@H](O)[C@H](O)[C@H]2O)[C@H](O)[C@H]1O[C@H]1O[C@H](CO)[C@@H](O)[C@H](N)[C@H]1O [Amikacin, amikacin]	<0.5	>10^4 ng/mL					
CN[C@H]1C(=O)N[C@@H]2Cc3ccc(cc3)Oc3cc4cc(c3O[C@@H]3O[C@H](C(=O)O)[C@@H](O)[C@H](O)[C@H]3NC(=O)CCCCCCCCC(C)C)Oc3ccc(cc3Cl)[C@@H](O)[C@@H]3NC(=O)[C@H](NC(=O)[C@@H]4NC(=O)[C@@H](NC2=O)c2cc(cc(O)c2Cl)Oc2cc1ccc2O)c1ccc(O)c(c1)-c1c(O[C@H]2O[C@H](CO)[C@@H](O)[C@H](O)[C@@H]2O)cc(O)cc1[C@@H](C(=O)NCCCN(C)C)NC3=O [Dalbavancin, dalbavancin]	<0.5	>10^4 ng/mL					
C[C@@H](O)[C@H]1C(=O)N2C(C(=O)O)=C(S[C@@H]3CN[C@H](C(=O)N(C)C)C3)[C@H](C)[C@H]12 [Meropenem, meropenem]	<0.5	>10^4 ng/mL					
CN[C@H](CC(C)C)C(=O)N[C@H]1C(=O)N[C@@H](CC(N)=O)C(=O)N[C@H]2C(=O)N[C@H]3C(=O)N[C@H](C(=O)N[C@H](C(=O)O)c4cc(O)cc(O)c4-c4cc3ccc4O)[C@H](O[C@H]3C[C@](C)(N)[C@@H](O)[C@H](C)O3)c3ccc(c(Cl)c3)Oc3cc2cc(c3O[C@@H]2O[C@H](CO)[C@@H](O)[C@H](O)[C@H]2O[C@H]2C[C@](C)(NCc3ccc(-c4ccc(Cl)cc4)cc3)[C@@H](O)[C@H](C)O2)Oc2ccc(cc2Cl)[C@H]1O [Oritavancin, oritavancin]	<0.5	>10^4 ng/mL					
CCCCCCCCCCNCCN[C@@]1(C)C[C@H](O[C@H]2[C@H](Oc3c4cc5cc3Oc3ccc(cc3Cl)[C@@H](O)[C@@H](NC(=O)[C@@H](CC(C)C)NC)C(=O)N[C@@H](CC(N)=O)C(=O)N[C@H]5C(=O)N[C@H]3C(=O)N[C@H](C(=O)N[C@H](C(=O)O)c5cc(O)c(CNCP(=O)(O)O)c(O)c5-c5cc3ccc5O)[C@H](O)c3ccc(c(Cl)c3)O4)O[C@H](CO)[C@@H](O)[C@@H]2O)O[C@@H](C)[C@H]1O [Telavancin, telavancin]	<0.5	>10^4 ng/mL					
CN[C@H](CC(C)C)C(=O)N[C@H]1C(=O)N[C@@H](CC(N)=O)C(=O)N[C@H]2C(=O)N[C@H]3C(=O)N[C@H](C(=O)N[C@H](C(=O)O)c4cc(O)cc(O)c4-c4cc3ccc4O)[C@H](O)c3ccc(c(Cl)c3)Oc3cc2cc(c3O[C@@H]2O[C@H](CO)[C@@H](O)[C@H](O)[C@H]2O[C@H]2C[C@](C)(N)[C@H](O)[C@H](C)O2)Oc2ccc(cc2Cl)[C@H]1O [VAN, Vancomycin hydrochloride]	100		~ 2 h	40	below 1 µg/mL	10.3	0.0445
teicoplanin	<0.5	>10^4 ng/mL					
